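Values below derive from 48-hour exposures of cells grown in 96-well plates, with endpoints linearly interpolated between the two concentrations bracketing the appropriate inhibition level. GI50: concentration for 50% inhibition of growth. The concentration for full growth arrest is given as TGI.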
How the values were obtained:
Experiment in all cases: growth of human tumour cells (NCI), 48 h
[1] = test system: UACC-62 melanoma
[2] = test system: MALME-3M melanoma
[3] = test system: LOX IMVI melanoma
[4] = test system: SNB-19 CNS
[5] = test system: A549 NSCLC
[6] = test system: NCI/ADR-RES ovarian
[7] = test system: BT-549 breast
[8] = test system: ACHN renal
[9] = test system: HL-60(TB) leukemia
[10] = test system: DU-145 prostate
[11] = test system: SW-620 colon
[12] = test system: SN12C renal
[13] = test system: HCT-116 colon
[14] = test system: SK-MEL-5 melanoma
[15] = test system: SNB-75 CNS
[16] = test system: NCI-H23 lung
[17] = test system: OVCAR-4 ovarian
[18] = test system: PC-3 prostate
[19] = test system: SF-268 CNS
[20] = test system: T-47D breast
[21] = test system: MDA-MB-231 breast
[22] = test system: HS 578T breast
[23] = test system: NCI-H522 lung
[24] = test system: OVCAR-3 ovarian
[25] = test system: CCRF-CEM leukemia
[26] = test system: OVCAR-8 ovarian
[27] = test system: MOLT-4 leukemia
[28] = test system: EKVX NSCLC
[29] = test system: MDA-MB-435
[30] = test system: UO-31 renal
[31] = test system: M14 melanoma
[32] = test system: COLO 205 colon
[33] = test system: KM12 colon
[34] = test system: SK-OV-3 ovarian
[35] = test system: MCF7 breast
[36] = test system: SR leukemia
[37] = test system: TK-10 renal
[38] = test system: U251 CNS
[39] = test system: 786-0 renal
[40] = test system: RPMI-8226 leukemia
[41] = test system: HT29 colon
[42] = test system: SK-MEL-2 melanoma
[43] = test system: HOP-92 NSCLC
[44] = test system: RXF 393 renal
[45] = test system: HOP-62 NSCLC
[46] = test system: SK-MEL-28 melanoma
[47] = test system: IGROV1 ovarian
[48] = test system: CAKI-1 renal
[49] = test system: UACC-257 melanoma
[50] = test system: SF-295 CNS
[51] = test system: K-562 leukemia
[52] = test system: NCI-H460 lung
[53] = test system: SF-539 CNS
[54] = test system: NCI-H226 lung
[55] = test system: HCC-2998 colon
[56] = test system: A498 renal
[57] = test system: HCT-15 colon

Work on `CC1(C)N=C(N)N=C(N)N1c1cccc(Br)c1` yielded a GI50 [1] of 1.93 µM, a TGI [1] of over 100 µM and a GI50 [2] of 33.2 µM. The TGI [2] was over 100 µM, the GI50 [3] was 0.146 µM and the TGI [3] was over 100 µM. It also gave a GI50 [4] of 1.68 µM, a TGI [4] of over 100 µM and a GI50 [5] of 0.469 µM. The TGI [5] was over 100 µM, the GI50 [6] was over 63.5 µM and the TGI [6] was over 100 µM. For the same compound, the GI50 [7] was 8.04 µM, the TGI [7] was over 100 µM and the GI50 [8] was 0.786 µM. It also gave a TGI [8] of over 100 µM, a GI50 [9] of 0.491 µM and a TGI [9] of over 73.8 µM. The GI50 [10] was 0.895 µM, the TGI [10] was over 100 µM and the GI50 [11] was 0.216 µM. It also gave a TGI [11] of over 100 µM, a GI50 [12] of 4.09 µM and a TGI [12] of over 100 µM. It also gave a GI50 [13] of 0.069 µM, a TGI [13] of over 100 µM and a GI50 [14] of 1.03 µM. It also gave a TGI [14] of over 100 µM, a GI50 [15] of over 59 µM and a TGI [15] of over 100 µM. The GI50 [16] was 0.564 µM, the TGI [16] was over 100 µM and the GI50 [17] was 8.66 µM. For the same compound, the TGI [17] was over 100 µM, the GI50 [18] was 0.212 µM and the TGI [18] was over 100 µM. It also gave a GI50 [19] of 0.0541 µM, a TGI [19] of over 100 µM and a GI50 [20] of over 82.7 µM. It also gave a TGI [20] of over 100 µM, a GI50 [21] of over 100 µM and a TGI [21] of over 100 µM. It also gave a GI50 [22] of over 30.4 µM, a TGI [22] of over 100 µM and a GI50 [23] of 4.29 µM. It also gave a TGI [23] of over 100 µM, a GI50 [24] of 6.56 µM and a TGI [24] of over 100 µM. It also gave a GI50 [25] of 2.24 µM, a TGI [25] of over 100 µM and a GI50 [26] of 0.228 µM. For the same compound, the TGI [26] was over 100 µM, the GI50 [27] was 0.94 µM and the TGI [27] was over 100 µM. It also gave a GI50 [28] of 17.4 µM, a TGI [28] of over 100 µM and a GI50 [29] of 0.0612 µM. The TGI [29] was over 100 µM, the GI50 [30] was 6.69 µM and the TGI [30] was over 100 µM. For the same compound, the GI50 [31] was 0.558 µM, the TGI [31] was over 100 µM and the GI50 [32] was 8.39 µM. The TGI [32] was over 100 µM, the GI50 [33] was 0.769 µM and the TGI [33] was over 100 µM. It also gave a GI50 [34] of 1.69 µM, a TGI [34] of over 100 µM and a GI50 [35] of 0.665 µM. For the same compound, the TGI [35] was over 100 µM, the GI50 [36] was 0.703 µM and the TGI [36] was over 100 µM. It also gave a TGI [37] of over 100 µM, a GI50 [38] of 0.321 µM and a TGI [38] of over 100 µM. The GI50 [39] was 0.093 µM, the TGI [39] was over 100 µM and the GI50 [40] was 6.81 µM. The TGI [40] was over 100 µM, the GI50 [41] was 0.255 µM and the TGI [41] was over 100 µM. It also gave a GI50 [42] of over 100 µM, a TGI [42] of over 100 µM and a GI50 [43] of over 100 µM. For the same compound, the TGI [43] was over 100 µM, the GI50 [44] was over 23.1 µM and the TGI [44] was over 100 µM. It also gave a GI50 [45] of 0.777 µM, a TGI [45] of over 100 µM and a GI50 [46] of 14 µM. The TGI [46] was over 100 µM, the GI50 [47] was 0.202 µM and the GI50 [48] was 41.9 µM. The TGI [48] was over 100 µM, the GI50 [49] was over 92.4 µM and the TGI [49] was over 100 µM. For the same compound, the GI50 [50] was 0.642 µM, the TGI [50] was over 38 µM and the GI50 [51] was 0.0597 µM. It also gave a TGI [51] of over 100 µM, a GI50 [52] of 0.435 µM and a TGI [52] of over 100 µM. The GI50 [53] was 0.393 µM, the TGI [53] was over 100 µM and the TGI [54] was over 100 µM. For the same compound, the GI50 [55] was 0.777 µM, the TGI [55] was over 45.5 µM and the GI50 [56] was 15.9 µM. It also gave a TGI [56] of over 100 µM, a GI50 [57] of 1.42 µM and a TGI [57] of over 100 µM.

— PubChem BioAssay (NCI)
